In patent US9567301B2, “Pyrrol-1-yl benzoic acid derivatives useful as myc inhibitors” (Whitehead Institute for Biomedical Research, priority 2012, dated 2017):
Where two headings read alike, the source gives them in different places.

Legend:
Jurkat cells = assay: Cell viability assay (ATPlite), Jurkat; assay type: cell-based, human; settings: class symbols, NA: not active under assay conditions
Protocol: (§1) This assay was used for the H2171 and MM1S cell data shown in Table 2, and for the Jurkat (an immortalized line of human T lymphocyte cells), Ly1 (OCI-Ly1 human non-Hodgkin lymphoma cell line), Ly4 (OCI-Ly4 human non-Hodgkin lymphoma cell line), H2172 (NCI-H2172 human non-small cell lung cancer cell line), and CA-46 (a human Burkitt's lymphoma cell line) cell data shown in Table 3 and FIG. 12. Cells were counted and adjusted to 60,000 cells/mL. Using a Biotek EL406, 50 μL of cells are media were distributed into 384 well white plates from Thermo. Immediately after plating, compound in DMSO was distributed to plates. For large plate sets, cells were returned to 37° C. incubator while not in use.
(§2) Compounds were added to plates using a 100 nL 384 well pin transfer manifold on a Janus workstation. Stocks were arrayed in 10 point quadruplicate dose response in DMSO stock in 384 well Greiner compound plates. After addition of compound, plates were incubated for three days in a 37° C. incubator.
(§3) Cell viability was read out using ATPlite from Perkin Elmer. Plates were removed from the incubator and brought to room temperature prior to use. Lyophilized powder was resuspended in lysis buffer and diluted 1:2 with DI water. 25 μL of this solution was added to each well using the Biotek liquid handler. Plates were sealed with adherent aluminum seals prior to vortexing and spinning down at 1000 g for 1 minute. Plates were incubated for 15 minutes at room temperature before signal was read on an Envision Plate Reader.

c-Myc/Max/Ebox DNA = c-Myc/Max/Ebox DNA (Homo sapiens, UniProt P01106); assay: c-Myc/Max/Ebox DNA AlphaScreen assay; assay type: binding; parameters: An exemplary assay uses full-length human c-Myc and Max proteins; his6 (cleaved yes); made in house
Protocol: This protocol was used to generate the biochemical data in Table 2 and FIG. 11. The primary AlphaScreen assay is amenable to 384-well and 1536-well plate formats for HTS. Human his6-c-Myc and his6-Max were used with biotinylated DNA containing a single Ebox sequence (biotin[…]) purchased from MWG Operon. Free c-Myc was generated from his6-c-Myc through thrombin cleavage of the his6 tag. For 384-well plate assays, 10 μL of a 2× solution of free c-Myc (25 nM final), Ni++-coated Acceptor Bead (25 μg/ml final), and biotinylated Ebox oligo (10 nM final) were added to 384-well plates with a Biotek EL406 liquid handler. 100 nL of compounds from stock plates were added by pin transfer using a Janus Workstation (PerkinElmer), allowing the compounds to interact with c-Myc prior to c-Myc binding with Max. In the current assay, DMSO was not allowed to exceed 2% v/v of the assay. 10 μl of 2× master mix containing streptavidin-coated donor beads (25 μg/ml final) and his6-Max (1.25 nM final) were added. AlphaScreen measurements were performed on an Envision 2104 (PerkinElmer) utilizing the manufacturer's protocol. The assay can also be performed in 1536-plate format with 8 μL total volume using two 4 μL additions (instead of […] and 10 μL respectively).
Assays are performed with minor modifications from the manufacturer's protocol (PerkinElmer). Both master mixes were made in room temperature assay buffer (50 mM HEPES, 150 mM NaCl, 0.2% w/v BSA, 0.02% w/v Tween20, 40 μg/ml glycogen, 500 μM DTT, pH 8.0, DTT and glycogen added fresh). Alpha beads were added to respective master solutions and wrapped in foil. All subsequent steps were performed in low light conditions. Solution 1: 2× solution of components with final concentrations of cMyc (25 nM), Ni-coated Acceptor Bead (25 μg/ml), and biotinylated Ebox oligo (10 nM). Solution 2: 2× solution of streptavidin-coated donor beads (25 μg/ml final) and his6-Max (1.25 nM final). […] Solution 1 were added to 384-well plate (AlphaPlate-384, PerkinElmer) with Biotek EL406 liquid handler and the plates were centrifuged at 1000 rpm for 1 minute. 100 nL of compounds from stock plates were added by pin transfer using a Janus Workstation. 10 μL Solution 2 were added with the liquid handler. Plates were sealed with foil to block light exposure and prevent evaporation. Plates were centrifuged at 1000 rpm for 1 minute followed by 2 hour incubation. AlphaScreen measurements were performed on an Envision 2104 utilizing the manufacturer's protocol. Excitation was at 680 nm for donor bead release of singlet oxygen and emission was read with a bandpass filter from 520-620 nm. Glycogen: Roche Diagnostics #10901393001. Plate 1536: Perkin Elmer, 6004350. Plate 384: Perkin Elmer, 6005350. Nickel-His Alpha Beads: 6760619R.

H2171 cells = assay: Cell viability assay (ATPlite), H2171; assay type: cell-based, human; settings: cell viability, three days, ATPlite, NA: inactive under assay conditions
Protocol: as §1, §2, §3

MM1S cells = assay: Cell viability assay (ATPlite), MM1S; assay type: cell-based, human; settings: cell viability, three days, ATPlite, NA: inactive under assay conditions
Protocol: as §1, §2, §3

[1] = class symbols, NA: not active under assay conditions, read-out: Myc/Max IC50
[2] = c-Myc/Max/Ebox DNA AlphaScreen, NA: inactive under assay conditions, read-out: Biochemical IC50

Sequence of c-Myc/Max/Ebox DNA (P01106 16-454): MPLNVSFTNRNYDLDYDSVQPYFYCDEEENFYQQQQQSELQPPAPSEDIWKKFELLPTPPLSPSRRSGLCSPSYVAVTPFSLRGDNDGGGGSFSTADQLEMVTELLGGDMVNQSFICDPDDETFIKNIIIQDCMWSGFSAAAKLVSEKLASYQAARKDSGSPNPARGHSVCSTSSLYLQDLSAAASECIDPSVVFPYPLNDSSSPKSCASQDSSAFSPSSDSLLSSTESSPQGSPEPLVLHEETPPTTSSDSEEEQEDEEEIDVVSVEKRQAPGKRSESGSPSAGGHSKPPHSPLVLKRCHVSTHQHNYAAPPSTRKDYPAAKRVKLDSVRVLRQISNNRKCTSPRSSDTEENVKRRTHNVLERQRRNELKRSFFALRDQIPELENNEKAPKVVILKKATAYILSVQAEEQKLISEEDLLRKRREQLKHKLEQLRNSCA

Row | EC50 (Jurkat cells; Homo sapiens, Jurkat) [µM] | IC50 (c-Myc/Max/Ebox DNA; [1]) [µM] | EC50 (H2171 cells; Homo sapiens, NCI-H2171, 72 h) [µM] | EC50 (MM1S cells; Homo sapiens, MM1.S, 72 h) [µM] | IC50 (c-Myc/Max/Ebox DNA; [2]) [µM] | SMILES | further results
1 | ≥ 100 | 10 to 100 |  |  |  | Cc1ccc(C)n1-c1cc(C(=O)O)ccc1C(=O)NS(C)(=O)=O [Compound 223] | 
2 |  | 10 to 100 |  |  |  | Cc1ccc(C)n1-c1cc(C(=O)N2CCCC(c3ccc(C(=O)O)cc3)C2)ccc1C(=O)O (stereo not shown) [Compound 209] | EC50 (Jurkat cells): ≥ 100 µM
3 | ≥ 100 | 1 to 10 |  |  |  | Cc1ccc(C)n1-c1cc(C(=O)N2CCN(c3cccc(O)c3)CC2)ccc1C(=O)O [Compound 182] | 
4 | 10 to 100 | 10 to 100 |  |  |  | Cc1ccc(C)n1-c1cc(C(=O)N2CCC=C(c3cccc(C(=O)O)c3)C2)ccc1C(=O)O [Compound 204] | 
5 | 10 to 100 | ≥ 100 |  |  |  | Cc1ccc(C)n1-c1cc(Br)ccc1C(=O)NS(C)(=O)=O [Compound 214] | 
6 | ≥ 100 | ≥ 100 |  |  |  | Cc1ccc(C)n1-c1cc(C(=O)N2CCCC(c3ccc(C(=O)NS(C)(=O)=O)cc3)C2)ccc1C(=O)NS(C)(=O)=O (stereo not shown) [Compound 186] | 
7 | ≥ 100 | < 1 |  |  |  | Cc1ccc(C)n1-c1cc(CNCc2ccc(C(=O)O)cc2)ccc1C(=O)O [Compound 193] | 
8 | < 10 | < 1 |  |  |  | Cc1ccc(C)n1-c1cc(-c2nnc(-c3ccc(O)c(O)c3O)o2)ccc1C(=O)O [Compound 224] | 
9 | 10 to 100 | 10 to 100 |  |  |  | Cc1ccc(C)n1-c1cc(C(=O)N2CCC=C(c3ccc(C(=O)O)cc3)C2)ccc1C(=O)O [Compound 202] | 
10 |  |  | 303 | 243 | 252 | Cc1ccc(C)n1-c1ccccc1S(=O)(=O)O [Compound 128] | 
11 | ≥ 100 | 10 to 100 |  |  |  | Cc1ccccc1N1CCN(C(=O)c2ccc(C(=O)O)c(-n3c(C)ccc3C)c2)CC1 [Compound 179] | 
12 |  |  | 6.27 | 11.5 | 442 | Cc1nccn1-c1ccccc1C(=O)O [Compound 26] | 
13 |  | 10 to 100 |  |  |  | Cc1ccc(C)n1-c1cc(C(=O)N2CCCC(c3ccc(C(=O)O)cc3)C2)ccc1C(=O)O (stereo not shown) [Compound 210] | EC50 (Jurkat cells): ≥ 100 µM
14 |  |  | 198 | 2760 | 15.4 | Cc1ccc(C)n1-c1cc(C(=O)NCCc2c[nH]cn2)ccc1C(=O)O [Compound 72] | 
15 |  |  | 22.8 | 71.9 | 2480 | CC(=O)OCOC(=O)c1ccccc1N1CCOCC1 [Compound 152] | 
16 | ≥ 100 | ≥ 100 |  |  |  | COc1ccccc1C(=O)N1CCN(C(=O)c2ccc(C(=O)O)c(-n3c(C)ccc3C)c2)CC1 [Compound 213] | 
17 |  |  | 24100 | 5170 | 3.84 | Cc1ccc(C)n1-c1cc(C(=O)N/N=C/c2cc(C(F)(F)F)cc(C(F)(F)F)c2)ccc1C(=O)O [Compound 98] | 
18 | 10 to 100 | ≥ 100 |  |  |  | Cc1ccccc1C1CCCN(C(=O)c2ccc(C(=O)O)c(-n3c(C)ccc3C)c2)C1 (stereo not shown) [Compound 200] | 
19 | ≥ 100 | < 1 |  |  |  | Cc1ccc(C)n1-c1cc(C(=O)N2CCCC(c3ccccc3C(=O)O)C2)ccc1C(=O)O (stereo not shown) [Compound 203] | 
20 |  |  |  |  | 61.9 | Cc1ccc(C)n1-c1ccc(C(=O)O)c(O)c1 [Compound 65] | EC50 (H2171 cells): 189 µM; EC50 (MM1S cells): 1440 µM
21 |  |  |  |  | 91.4 | CC(=O)OCOC(=O)c1ccc(-n2c(C)ccc2C)cc1O [Compound 143] | EC50 (H2171 cells): 66.1 µM; EC50 (MM1S cells): 161 µM
22 | ≥ 100 | < 1 |  |  |  | Cc1ccc(C)n1-c1cc(C(=O)N2CCN(c3cccc(C(=O)O)c3)CC2)ccc1C(=O)O [Compound 195] | 

Row | EC50 (Jurkat cells; Homo sapiens, Jurkat) [µM] | IC50 (c-Myc/Max/Ebox DNA; [1]) [µM] | EC50 (H2171 cells; Homo sapiens, NCI-H2171, 72 h) [µM] | EC50 (MM1S cells; Homo sapiens, MM1.S, 72 h) [µM] | IC50 (c-Myc/Max/Ebox DNA; [2]) [µM] | SMILES | further results
23 | ≥ 100 | 1 to 10 |  |  |  | Cc1ccc(C)n1-c1cc(C(=O)N2CCCC(c3ccc(C(=O)O)cc3)C2)ccc1C(=O)O (stereo not shown) [Compound 164] | 
24 | ≥ 100 | ≥ 100 |  |  |  | COC(=O)c1ccc(C(=O)NN)cc1-n1c(C)ccc1C [Compound 211] | 
25 |  |  | 198 | 92.4 | 38 | Cc1ccc(C)n1-c1cc(C(=O)N/N=C/c2ccc3c(c2)OCCN3C)ccc1C(=O)O [Compound 89] | 
26 |  |  | 123 | 79.3 | 61.8 | Cc1ccc(-c2ccccc2)n1-c1ccc(O)c(C(=O)O)c1 [Compound 12] | 
27 |  |  | 89.1 | 75.3 | 96 | CCCOC(=O)c1ccc(-n2c(CCC(=O)O)ccc2-c2ccccc2)cc1O [Compound 21] | 
28 |  |  | 73.4 | 71.7 | 124 | CCOC(=O)c1ccc(-n2c(CCC(=O)O)ccc2-c2cccs2)cc1O [Compound 22] | 
29 |  |  | 106 | 492 | 4.82 | Cc1ccc(C)n1-c1cc(C(=O)N/N=C/c2ccc(F)c(F)c2)ccc1C(=O)O [Compound 99] | 
30 |  |  | 115 | 39 | 156 | Cc1ccc(C)n1-c1ccccc1/C=C/C(=O)O [Compound 69] | 
31 |  |  | 564 | 329 | 96.4 | Cc1c(C)c(C)n(-c2ccc(C(=O)O)c(O)c2)c1C [Compound 139] | 
32 |  |  |  |  | 53.3 | Cc1ccc(C)n1-c1ccc(C(=O)O)c(O)c1 [Compound 127] | EC50 (H2171 cells): 517 µM; EC50 (MM1S cells): 517 µM
33 |  |  | 101 | 78.3 | 139 | CCOC(=O)c1ccc(-n2c(CCC(=O)O)ccc2-c2ccccc2)cc1O [Compound 25] | 
34 |  |  |  |  | 101 | CC(=O)OCOC(=O)c1ccccc1-n1c(C)ccc1C [Compound 149] | EC50 (H2171 cells): 20.7 µM; EC50 (MM1S cells): 71.4 µM
35 |  |  | 104 | 211 | 94.6 | COc1cc(C(=O)OCOC(C)=O)c(-n2c(C)ccc2C)cc1OC [Compound 160] | 
36 |  |  | 70.3 | 238 | 206 | CC(=O)OCOC(=O)c1ccc(Cl)cc1-n1c(C)ccc1C [Compound 158] | 
37 |  |  | 64.9 | 58 | 81.6 | CCOC(=O)c1ccc(-n2c(CCC(=O)O)ccc2-c2ccc(Br)cc2)cc1O [Compound 23] | 
38 |  |  | 93.5 | 185 | 403 | Cc1cccc(Nc2ccccc2C(=O)O)c1C [Compound 153] | 
39 |  |  | 52.9 | 340 | 195 | Cc1ccc(C)n1-c1ccccc1CC(=O)O [Compound 68] | 
40 |  |  | 86.3 | 223 | 97.3 | COC(=O)c1ccccc1-n1c(C)ccc1C [Compound 14] | 
41 |  |  | 166 | 83.2 | 116 | CCOC(=O)c1ccc(-n2c(CCC(=O)O)ccc2-c2ccc(OC)cc2)cc1O [Compound 24] | 
42 |  |  | 224 | 300 | 51.5 | Cc1cc(Br)c(-n2c(C)ccc2C)c(C(=O)O)c1 [Compound 130] | 
43 |  |  | 28 | 99.1 | 150 | CC(=O)OCOC(=O)c1ccccc1-n1cccc1 [Compound 150] | 
